Source: patent EP4722207A1, “OXOISOINDOLINYL-SUBSTITUTED TETRAHYDROPYRIMIDINEDIONE DERIVATIVE AND USE THEREOF” (Gluetacs Therapeutics (Shanghai) Co., Ltd., priority 2023, dated 2024)

What was measured:
Type in all cases: cell-based
Settings in all cases: compounds at 50 nM and 500 nM, 24 hours
WEE1 = target: T1, WEE1 (Homo sapiens, UniProt P30291+Q96SW2); test: Western-blot assay, substrate protein degradation in hPBMCs: WEE1
T1 construct: effects of the compounds of the present disclosure on the expression of target proteins in cells; endogenous in cells; host or cells: human PBMCs (hPBMCs)
Procedure: (§1) Conventional Western blot assay was performed to evaluate the effects of the compounds of the present disclosure on the expression of target proteins in cells. • (1) Cell Seeding and Protein Harvesting: Human peripheral blood mononuclear cells (hPBMCs) at a density of 1x10^6 cells/mL were thawed according to the PBMC Recovery Protocol (Milecell Biotechnologies Inc, Shanghai). […] After 24 hours of compounds treatment, cells were harvested and lysed in RIPA protein lysate containing protease inhibitors on ice for 30 min, followed by centrifugation. The supernatant was aspirated as the extracted total cell protein. The protein concentration of the supernatant was determined using the conventional BCA (Bicinchoninic Acid) assay. • (2) To the collected supernatant, 5X SDS sample loading buffer was added, followed by denaturation at 95°C for 5 minutes. The denatured samples were then separated by SDS-PAGE electrophoresis on a polyacrylamide gel. Proteins were transferred to a nitrocellulose membrane (0.45 µm NC membrane), blocked with blocking buffer at room temperature for 1 hour, and subjected to antibody incubation and development procedures according to the antibody manufacturer's instructions (Cell Signaling Technology).
(§2) Half-Maximal Degradation Concentration value (the drug concentration required for degrading proteins by 50%, abbreviated as DC50) reads method: comparing the grayscale values of Western blot bands from drug-treated samples with those from blank DMSO-treated controls, and identifying the drug concentration range at which the grayscale value is half that of the DMSO-treated control bands.
(§3) DC50 values can be calculated using ImageJ software to measure grayscale values of Western blot bands from drug-treated samples. The concentration-response curve is fitted to estimate the drug concentration corresponding to half the grayscale value.
(§4) Target protein remaining (%) refers to the percentage of target protein remaining in cells after treatment with protein degrader compounds.
(§5) Calculation method for target protein remaining (%): Use ImageJ software to measure grayscale values of Western blot bands from drug (protein degrader)-treated samples. The grayscale value of drug-treated bands is divided by that of internal control protein bands, and the resulting quotient is normalized to obtain the relative percentage of remaining target protein after protein degrader treatment. Target protein degradation rate(%) = 1−target protein remaining(%). [formula]

IKZF1 = target: T2, IKZF1 (Homo sapiens, UniProt Q13422+Q96SW2); test: Western-blot assay, substrate protein degradation in hPBMCs: IKZF1
T2 construct: effects of the compounds of the present disclosure on the expression of target proteins in cells; endogenous in cells; host or cells: human PBMCs (hPBMCs)
Procedure: as §1, §2, §3, §4, §5

GSPT1 = target: T3, GSPT1 (Homo sapiens, UniProt P15170+Q96SW2); test: Western-blot assay, substrate protein degradation in hPBMCs: GSPT1
T3 construct: effects of the compounds of the present disclosure on the expression of target proteins in cells; endogenous in cells; host or cells: human PBMCs (hPBMCs)
Procedure: as §1, §2, §3, §4, §5

CK1α = target: T4, CK1α (Homo sapiens, UniProt P48729+Q96SW2); test: Western-blot assay, substrate protein degradation in hPBMCs: CK1α
T4 construct: effects of the compounds of the present disclosure on the expression of target proteins in cells; endogenous in cells; host or cells: human PBMCs (hPBMCs)
Procedure: as §1, §2, §3, §4, §5

IKZF3 = target: T5, IKZF3 (Homo sapiens, UniProt Q96SW2+Q9UKT9); test: Western-blot assay, substrate protein degradation in hPBMCs: IKZF3
T5 construct: effects of the compounds of the present disclosure on the expression of target proteins in cells; endogenous in cells; host or cells: human PBMCs (hPBMCs)
Procedure: as §1, §2, §3, §4, §5

IKZF2 = target: T6, IKZF2 (Homo sapiens, UniProt Q96SW2+Q9UKS7); test: Western-blot assay, substrate protein degradation in hPBMCs: IKZF2
T6 construct: effects of the compounds of the present disclosure on the expression of target proteins in cells; endogenous in cells; host or cells: human PBMCs (hPBMCs)
Procedure: as §1, §2, §3, §4, §5

T4 sequence (P48729 whole entry): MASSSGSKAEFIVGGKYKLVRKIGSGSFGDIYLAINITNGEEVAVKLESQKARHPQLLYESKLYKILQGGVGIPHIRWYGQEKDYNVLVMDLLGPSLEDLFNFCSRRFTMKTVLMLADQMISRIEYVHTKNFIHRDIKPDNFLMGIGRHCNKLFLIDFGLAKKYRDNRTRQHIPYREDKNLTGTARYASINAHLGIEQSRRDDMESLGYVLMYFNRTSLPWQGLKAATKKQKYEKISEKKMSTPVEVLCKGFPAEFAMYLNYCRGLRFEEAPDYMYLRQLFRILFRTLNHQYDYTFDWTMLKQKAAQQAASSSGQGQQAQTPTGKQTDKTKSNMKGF
T4 sequence (Q96SW2 whole entry): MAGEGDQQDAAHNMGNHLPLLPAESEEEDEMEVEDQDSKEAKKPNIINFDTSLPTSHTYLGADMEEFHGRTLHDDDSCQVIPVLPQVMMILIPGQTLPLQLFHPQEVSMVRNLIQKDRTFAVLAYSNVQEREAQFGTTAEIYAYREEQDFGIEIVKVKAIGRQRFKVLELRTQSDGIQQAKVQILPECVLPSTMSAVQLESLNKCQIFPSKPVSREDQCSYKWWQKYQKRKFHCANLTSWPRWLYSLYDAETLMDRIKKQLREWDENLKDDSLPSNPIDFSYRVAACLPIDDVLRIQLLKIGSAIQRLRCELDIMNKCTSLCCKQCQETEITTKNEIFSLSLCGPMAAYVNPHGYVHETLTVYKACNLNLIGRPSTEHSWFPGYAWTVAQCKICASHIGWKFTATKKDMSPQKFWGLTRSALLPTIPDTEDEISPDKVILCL
T4 sequence (Q16531 whole entry partner): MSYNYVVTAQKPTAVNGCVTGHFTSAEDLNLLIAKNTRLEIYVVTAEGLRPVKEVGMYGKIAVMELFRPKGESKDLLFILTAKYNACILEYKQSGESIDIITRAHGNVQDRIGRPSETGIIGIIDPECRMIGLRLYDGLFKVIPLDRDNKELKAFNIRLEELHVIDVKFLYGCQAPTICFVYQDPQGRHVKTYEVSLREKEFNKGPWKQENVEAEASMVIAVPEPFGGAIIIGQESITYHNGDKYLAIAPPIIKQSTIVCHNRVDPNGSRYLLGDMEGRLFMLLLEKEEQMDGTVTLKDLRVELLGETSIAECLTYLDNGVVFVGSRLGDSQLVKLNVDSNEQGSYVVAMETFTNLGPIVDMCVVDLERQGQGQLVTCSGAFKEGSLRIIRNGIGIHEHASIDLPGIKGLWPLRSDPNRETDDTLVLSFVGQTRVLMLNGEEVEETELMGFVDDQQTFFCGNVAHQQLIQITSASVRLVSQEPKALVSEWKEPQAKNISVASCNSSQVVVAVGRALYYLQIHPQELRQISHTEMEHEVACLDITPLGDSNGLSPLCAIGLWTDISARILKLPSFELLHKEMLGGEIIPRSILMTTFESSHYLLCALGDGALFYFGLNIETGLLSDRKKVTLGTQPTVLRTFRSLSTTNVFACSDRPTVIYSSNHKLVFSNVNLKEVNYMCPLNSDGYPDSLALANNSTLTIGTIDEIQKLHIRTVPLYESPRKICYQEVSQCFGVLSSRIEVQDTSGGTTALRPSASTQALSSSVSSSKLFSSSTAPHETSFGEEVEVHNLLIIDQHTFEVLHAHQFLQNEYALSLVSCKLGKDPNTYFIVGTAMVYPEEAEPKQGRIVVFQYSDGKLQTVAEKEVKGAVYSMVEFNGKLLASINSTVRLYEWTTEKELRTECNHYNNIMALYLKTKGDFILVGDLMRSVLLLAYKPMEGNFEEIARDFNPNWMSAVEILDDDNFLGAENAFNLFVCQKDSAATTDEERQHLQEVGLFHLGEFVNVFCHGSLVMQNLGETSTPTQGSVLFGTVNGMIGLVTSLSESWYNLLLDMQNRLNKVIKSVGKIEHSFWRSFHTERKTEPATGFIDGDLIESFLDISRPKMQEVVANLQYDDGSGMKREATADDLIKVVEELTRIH
T6 sequence (Q9UKS7 whole entry): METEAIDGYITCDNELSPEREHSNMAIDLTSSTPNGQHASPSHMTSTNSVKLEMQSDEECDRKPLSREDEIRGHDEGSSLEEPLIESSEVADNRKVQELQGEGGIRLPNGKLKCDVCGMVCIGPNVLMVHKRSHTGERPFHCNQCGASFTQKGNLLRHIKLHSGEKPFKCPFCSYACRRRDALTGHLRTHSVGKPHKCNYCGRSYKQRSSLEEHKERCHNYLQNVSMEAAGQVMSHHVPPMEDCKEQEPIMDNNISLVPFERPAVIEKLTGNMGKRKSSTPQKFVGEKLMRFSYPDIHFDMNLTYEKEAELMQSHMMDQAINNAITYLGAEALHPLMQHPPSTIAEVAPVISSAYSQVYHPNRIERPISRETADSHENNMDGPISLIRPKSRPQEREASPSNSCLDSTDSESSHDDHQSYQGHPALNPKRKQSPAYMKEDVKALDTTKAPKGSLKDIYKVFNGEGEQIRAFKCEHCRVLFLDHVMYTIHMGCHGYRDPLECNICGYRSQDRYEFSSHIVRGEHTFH
T6 sequence (Q96SW2 whole entry): as the sequence (Q96SW2 whole entry) above
T6 sequence (Q16531 whole entry partner): as the sequence (Q16531 whole entry partner) above
T5 sequence (Q9UKT9 whole entry): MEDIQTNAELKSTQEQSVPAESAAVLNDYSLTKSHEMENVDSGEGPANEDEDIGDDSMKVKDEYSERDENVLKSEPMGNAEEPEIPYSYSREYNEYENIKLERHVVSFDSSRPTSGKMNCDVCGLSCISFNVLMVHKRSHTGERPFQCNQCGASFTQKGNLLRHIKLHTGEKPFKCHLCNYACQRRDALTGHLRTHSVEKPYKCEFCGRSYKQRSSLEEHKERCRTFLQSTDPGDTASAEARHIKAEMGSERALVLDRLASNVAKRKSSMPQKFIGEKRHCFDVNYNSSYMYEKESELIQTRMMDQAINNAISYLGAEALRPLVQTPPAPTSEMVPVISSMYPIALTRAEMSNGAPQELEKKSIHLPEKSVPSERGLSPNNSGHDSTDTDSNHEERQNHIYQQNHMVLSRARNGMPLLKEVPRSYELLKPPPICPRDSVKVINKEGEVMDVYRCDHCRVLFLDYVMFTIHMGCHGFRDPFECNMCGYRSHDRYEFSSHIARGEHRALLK
T5 sequence (Q96SW2 whole entry): as the sequence (Q96SW2 whole entry) above
T5 sequence (Q16531 whole entry partner): as the sequence (Q16531 whole entry partner) above
T2 sequence (Q13422 whole entry): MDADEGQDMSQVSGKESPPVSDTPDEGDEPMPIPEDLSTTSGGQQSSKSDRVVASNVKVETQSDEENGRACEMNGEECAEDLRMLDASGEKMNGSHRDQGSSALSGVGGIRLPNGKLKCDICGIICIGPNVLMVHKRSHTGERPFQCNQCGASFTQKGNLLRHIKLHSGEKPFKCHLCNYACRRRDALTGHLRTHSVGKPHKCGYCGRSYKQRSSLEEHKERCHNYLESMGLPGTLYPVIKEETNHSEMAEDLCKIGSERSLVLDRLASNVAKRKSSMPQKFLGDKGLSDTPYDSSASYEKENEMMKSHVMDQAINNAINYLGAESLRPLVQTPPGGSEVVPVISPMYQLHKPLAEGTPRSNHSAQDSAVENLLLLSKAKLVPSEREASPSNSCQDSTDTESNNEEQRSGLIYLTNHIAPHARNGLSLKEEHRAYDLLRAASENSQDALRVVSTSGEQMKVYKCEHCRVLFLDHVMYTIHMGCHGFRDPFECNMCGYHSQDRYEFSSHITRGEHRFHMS
T2 sequence (Q96SW2 whole entry): as the sequence (Q96SW2 whole entry) above
T2 sequence (Q16531 whole entry partner): as the sequence (Q16531 whole entry partner) above
T3 sequence (P15170 whole entry): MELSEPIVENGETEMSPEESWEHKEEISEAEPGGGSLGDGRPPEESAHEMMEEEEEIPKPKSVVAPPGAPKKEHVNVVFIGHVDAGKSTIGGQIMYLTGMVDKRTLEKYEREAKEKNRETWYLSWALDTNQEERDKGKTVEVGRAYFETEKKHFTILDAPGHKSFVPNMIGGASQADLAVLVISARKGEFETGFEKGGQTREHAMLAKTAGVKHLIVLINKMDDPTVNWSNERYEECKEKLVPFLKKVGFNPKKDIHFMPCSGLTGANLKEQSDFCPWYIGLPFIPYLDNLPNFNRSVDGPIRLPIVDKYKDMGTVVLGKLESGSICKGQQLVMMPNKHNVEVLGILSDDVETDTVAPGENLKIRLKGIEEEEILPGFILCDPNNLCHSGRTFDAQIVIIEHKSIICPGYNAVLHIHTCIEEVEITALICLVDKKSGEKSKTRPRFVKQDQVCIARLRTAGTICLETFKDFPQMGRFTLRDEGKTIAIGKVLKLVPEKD
T3 sequence (Q96SW2 whole entry): as the sequence (Q96SW2 whole entry) above
T3 sequence (Q16531 whole entry partner): as the sequence (Q16531 whole entry partner) above

Row | Structure (SMILES) | WEE1 substrate protein remaining % (WEE1) | IKZF1 substrate protein remaining % (IKZF1) | GSPT1 substrate protein remaining % (GSPT1) | CK1α substrate protein remaining % (CK1α) | IKZF3 substrate protein remaining % (IKZF3) | IKZF2 substrate protein remaining % (IKZF2)
1 | O=C1CCN(N2Cc3cc(CN4CCN(c5ncccc5F)CC4)ccc3C2=O)C(=O)N1 [GT-05129, 1-(5-((4-(3-fluoropyridin-2-yl)piperazin-1-yl)methyl)-1-oxoisoindolin-2-yl)dihydropyrimidine-2,4(1H,3H)-dione] | A ("A" is defined as 0% ≤ substrate protein remaining % ≤ 80%) | A ("A" is defined as 0% ≤ substrate protein remaining % ≤ 80%) | A ("A" is defined as 0% ≤ substrate protein remaining % ≤ 80%) | A ("A" is defined as 0% ≤ substrate protein remaining % ≤ 80%) | A ("A" is defined as 0% ≤ substrate protein remaining % ≤ 80%) | A ("A" is defined as 0% ≤ substrate protein remaining % ≤ 80%)
2 | O=C1CCN(N2Cc3cc(CN4CCN(c5cccc(F)n5)CC4)ccc3C2=O)C(=O)N1 [GT-05130, 1-(5-((4-(6-fluoropyridin-2-yl)piperazin-1-yl)methyl)-1-oxoisoindolin-2-yl)dihydropyrimidine-2,4(1H,3H)-dione] | A ("A" is defined as 0% ≤ substrate protein remaining % ≤ 80%) | A ("A" is defined as 0% ≤ substrate protein remaining % ≤ 80%) | A ("A" is defined as 0% ≤ substrate protein remaining % ≤ 80%) | A ("A" is defined as 0% ≤ substrate protein remaining % ≤ 80%) | A ("A" is defined as 0% ≤ substrate protein remaining % ≤ 80%) | A ("A" is defined as 0% ≤ substrate protein remaining % ≤ 80%)
3 | O=C1CCN(N2Cc3cc(CN4CCN(c5ccc(F)cn5)CC4)ccc3C2=O)C(=O)N1 [GT-05131, 1-(5-((4-(5-fluoropyridin-2-yl)piperazin-1-yl)methyl)-1-oxoisoindolin-2-yl)dihydropyrimidine-2,4(1H,3H)-dione] | A ("A" is defined as 0% ≤ substrate protein remaining % ≤ 80%) | A ("A" is defined as 0% ≤ substrate protein remaining % ≤ 80%) | A ("A" is defined as 0% ≤ substrate protein remaining % ≤ 80%) | A ("A" is defined as 0% ≤ substrate protein remaining % ≤ 80%) | A ("A" is defined as 0% ≤ substrate protein remaining % ≤ 80%) | A ("A" is defined as 0% ≤ substrate protein remaining % ≤ 80%)
4 | O=C1CCN(N2Cc3cc(CN4C5CC4CN(c4cccc(Cl)c4Cl)C5)ccc3C2=O)C(=O)N1 [GT-05162, 1-(5-((3-(2,3-dichlorophenyl)-3,6-diazabicyclo[3.1.1]heptan-6-yl)methyl)-1-oxoisoindolin-2-yl)dihydropyrimidine-2,4(1H,3H)-dione] | B ("B" is defined as 80%< substrate protein remaining %≤ 100%) | B ("B" is defined as 80%< substrate protein remaining %≤ 100%) | A ("A" is defined as 0% ≤ substrate protein remaining % ≤ 80%) | B ("B" is defined as 80%< substrate protein remaining %≤ 100%) | A ("A" is defined as 0% ≤ substrate protein remaining % ≤ 80%) | B ("B" is defined as 80%< substrate protein remaining %≤ 100%)
5 | O=C1CCN(N2C(=O)c3ccc(CN4CCC(N(c5ccccc5)c5ccccc5)CC4)cc3C2=O)C(=O)N1 [GT-05177, 2-(2,4-dioxotetrahydropyrimidin-1(2H)-yl)-5-((4-(diphenylamino)piperidin-1-yl)methyl)isoindoline-1,3-dione] | B ("B" is defined as 80%< substrate protein remaining %≤ 100%) | B ("B" is defined as 80%< substrate protein remaining %≤ 100%) | A ("A" is defined as 0% ≤ substrate protein remaining % ≤ 80%) | B ("B" is defined as 80%< substrate protein remaining %≤ 100%) | B ("B" is defined as 80%< substrate protein remaining %≤ 100%) | B ("B" is defined as 80%< substrate protein remaining %≤ 100%)
6 | O=C1CCN(N2C(=O)c3ccc(CN4CCC(Nc5ccccc5-c5ccc(Cl)cc5)CC4)cc3C2=O)C(=O)N1 [GT-05179, 5-((4-((4'-chloro-[1,1'-biphenyl]-2-yl)amino)piperidin-1-yl)methyl)-2-(2,4-dioxotetrahydropyrimidin-1(2H)-yl)isoindoline-1,3-dione] | A ("A" is defined as 0% ≤ substrate protein remaining % ≤ 80%) | B ("B" is defined as 80%< substrate protein remaining %≤ 100%) | B ("B" is defined as 80%< substrate protein remaining %≤ 100%) | B ("B" is defined as 80%< substrate protein remaining %≤ 100%) | B ("B" is defined as 80%< substrate protein remaining %≤ 100%) | B ("B" is defined as 80%< substrate protein remaining %≤ 100%)
7 | CC1(C)CCC(CN2CCN(Cc3ccc4c(c3)C(=O)N(N3CCC(=O)NC3=O)C4=O)CC2)=C(c2ccc(Cl)cc2)C1 [GT-05180, 5-((4-((4'-chloro-5,5-dimethyl-3,4,5,6-tetrahydro-[1,1'-biphenyl]-2-yl)methyl)piperazin-1-yl)methyl)-2-(2,4-dioxotetrahydropyrimidin-1(2H)-yl)isoindoline-1,3-dione] | A ("A" is defined as 0% ≤ substrate protein remaining % ≤ 80%) | B ("B" is defined as 80%< substrate protein remaining %≤ 100%) | B ("B" is defined as 80%< substrate protein remaining %≤ 100%) | B ("B" is defined as 80%< substrate protein remaining %≤ 100%) | B ("B" is defined as 80%< substrate protein remaining %≤ 100%) | B ("B" is defined as 80%< substrate protein remaining %≤ 100%)
8 | O=C1CCN(N2C(=O)c3ccc(CN4CC=C(c5c[nH]c6ncccc56)CC4)cc3C2=O)C(=O)N1 [GT-05181, 5-((4-(1H-pyrrolo[2,3-b]pyridin-3-yl)-3,6-dihydropyridin-1(2H)-yl)methyl)-2-(2,4-dioxotetrahydropyrimidin-1(2H)-yl)isoindoline-1,3-dione] | A ("A" is defined as 0% ≤ substrate protein remaining % ≤ 80%) | B ("B" is defined as 80%< substrate protein remaining %≤ 100%) | B ("B" is defined as 80%< substrate protein remaining %≤ 100%) | B ("B" is defined as 80%< substrate protein remaining %≤ 100%) | B ("B" is defined as 80%< substrate protein remaining %≤ 100%) | B ("B" is defined as 80%< substrate protein remaining %≤ 100%)
9 | O=C1CCN(N2C(=O)c3ccc(CN4CC=C(c5cccc(Cl)c5Cl)CC4)cc3C2=O)C(=O)N1 [GT-05249, 5-((4-(2,3-dichlorophenyl)-3,6-dihydropyridin-1(2H)-yl)methyl)-2-(2,4-dioxotetrahydropyrimidin-1(2H)-yl)isoindoline-1,3-dione] | B ("B" is defined as 80%< substrate protein remaining %≤ 100%) | A ("A" is defined as 0% ≤ substrate protein remaining % ≤ 80%) | A ("A" is defined as 0% ≤ substrate protein remaining % ≤ 80%) | B ("B" is defined as 80%< substrate protein remaining %≤ 100%) | B ("B" is defined as 80%< substrate protein remaining %≤ 100%) | B ("B" is defined as 80%< substrate protein remaining %≤ 100%)
